Values belong to the molecule of their own block, whether it stands above or below them.
Assays:
NPF4.1 (AIT3) = biological target: T1, NPF4.1 (AIT3) (Arabidopsis thaliana, UniProt Q9LSF0); experiment: competition of GA4 uptake in Xenopus oocytes, LC-MS; assay type: cell-based; conditions: 300 uM GA4 with 5 mM JA-Ile
T1 sequence (Q9LSF0 1-515): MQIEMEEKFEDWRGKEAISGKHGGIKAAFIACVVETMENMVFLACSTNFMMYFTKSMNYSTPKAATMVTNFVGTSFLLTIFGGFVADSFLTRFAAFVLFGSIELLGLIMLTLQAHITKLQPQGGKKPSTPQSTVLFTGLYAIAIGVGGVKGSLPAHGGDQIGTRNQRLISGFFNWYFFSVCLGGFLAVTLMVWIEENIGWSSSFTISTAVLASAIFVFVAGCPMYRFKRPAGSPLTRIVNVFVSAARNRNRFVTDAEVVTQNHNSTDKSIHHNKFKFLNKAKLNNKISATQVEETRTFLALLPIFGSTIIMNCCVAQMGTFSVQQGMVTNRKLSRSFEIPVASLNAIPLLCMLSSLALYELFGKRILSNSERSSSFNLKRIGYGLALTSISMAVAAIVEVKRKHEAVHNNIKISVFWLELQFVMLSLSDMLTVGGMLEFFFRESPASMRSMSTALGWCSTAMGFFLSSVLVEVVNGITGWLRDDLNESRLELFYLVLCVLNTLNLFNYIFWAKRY

[1] = substrate: C=C1C[C@]23C[C@H]1CC[C@H]2[C@@]12CC[C@H](O)[C@@](C)(C(=O)O1)[C@H]2[C@@H]3C(=O)O; experiment: uptake into Xenopus oocytes, LC-MS; assay type: cell-based, Arabidopsis thaliana; conditions: pH 5, 60 min incubation, diffusion into non-injected oocytes subtracted, judged by authors a likely overestimation

inhibition of GA4 uptake at 5 mM (NPF4.1 (AIT3)): JA-Ile strongly inhibited GA4 uptake
Molecule: CC/C=C\C[C@H]1C(=O)CC[C@@H]1CC(=O)N[C@H](C(=O)O)[C@@H](C)CC [JA-Ile]

B1: NPF3 (NPF3.1, AtNPF3.1) (Arabidopsis thaliana) (protein)
chain: MEEQSKNKISEEEKQLHGRPNRPKGGLITMPFIFANEICEKLAVVGFHANMISYLTTQLHLPLTKAANTLTNFAGTSSLTPLLGAFIADSFAGRFWTITFASIIYQIGMTLLTISAIIPTLRPPPCKGEEVCVVADTAQLSILYVALLLGALGSGGIRPCVVAFGADQFDESDPNQTTKTWNYFNWYYFCMGAAVLLAVTVLVWIQDNVGWGLGLGIPTVAMFLSVIAFVGGFQLYRHLVPAGSPFTRLIQVGVAAFRKRKLRMVSDPSLLYFNDEIDAPISLGGKLTHTKHMSFLDKAAIVTEEDNLKPGQIPNHWRLSTVHRVEELKSVIRMGPIGASGILLITAYAQQGTFSLQQAKTMNRHLTNSFQIPAGSMSVFTTVAMLTTIIFYDRVFVKVARKFTGLERGITFLHRMGIGFVISIIATLVAGFVEVKRKSVAIEHGLLDKPHTIVPISFLWLIPQYGLHGVAEAFMSIGHLEFFYDQAPESMRSTATALFWMAISIGNYVSTLLVTLVHKFSAKPDGSNWLPDNNLNRGRLEYFYWLITVLQAVNLVYYLWCAKIYTYKPVQVHHSKEDSSPVKEELQLSNRSLVDE
notes: putative 12 transmembrane domains
Km [1]: 500 µM
